Molecules are shown by their SMILES. “Also recorded” adds a separate entry of the source.

For experiment [1], the target named is T1, PPARγ (Homo sapiens, UniProt P37231).
T1 construct: expressed in transfected cells; host or cells: HEK293T
T1 sequence (P37231 238-503 limits assumed): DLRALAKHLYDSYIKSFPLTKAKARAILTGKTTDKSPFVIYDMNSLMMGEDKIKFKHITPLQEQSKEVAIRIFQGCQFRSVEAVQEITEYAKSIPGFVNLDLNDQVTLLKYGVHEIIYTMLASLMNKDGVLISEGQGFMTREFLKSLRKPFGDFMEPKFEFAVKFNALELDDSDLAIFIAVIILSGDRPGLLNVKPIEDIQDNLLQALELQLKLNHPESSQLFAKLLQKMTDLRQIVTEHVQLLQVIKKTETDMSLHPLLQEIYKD
Description: GAL4-PPARγ luciferase reporter assay with empty control vector in HEK293T cells. Format: cell-based. Particulars: GAL4-PPARγ luciferase reporter and empty control vector. As to the method: HEK293T cells were transiently co-transfected using Polyethylenimine (Sigma) with a UAS-Luciferase reporter and a vector expressing the heterologous GAL4 DNA binding domain (DBD) or a GAL4 DNA binding domain::PPARγ ligand binding domain (LBD) chimeric protein, and full-length PTGR2. 24 hr after transfection, cells were treated either with vehicle (DMSO), 15k-PGE2 (20 μM), or fragment compounds. Rosiglitazone (2 μM), a synthetic PPARγ ligand, was used as control. 16 hr after incubation, cells were lysed in Cell Culture Lysis Reagent (Promega) and luciferase activity measured using the Luciferase Assay System (Promega).

The target of experiment [2] is T2, BAX (Homo sapiens, UniProt Q07812).
T2 construct: endogenous in cells; host or cells: human cells (HEK293T; a subset of probes also in K562)
T2 sequence (Q07812 whole entry): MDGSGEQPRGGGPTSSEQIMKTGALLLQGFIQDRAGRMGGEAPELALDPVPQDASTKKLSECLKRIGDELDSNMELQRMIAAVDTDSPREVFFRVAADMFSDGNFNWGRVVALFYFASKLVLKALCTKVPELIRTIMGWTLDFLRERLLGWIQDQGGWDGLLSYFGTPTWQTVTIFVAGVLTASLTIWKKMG
As to the kind of experiment: Mapping of FFF probe-modified peptide on BAX. Type of experiment: binding. Particulars: for Labeled Peptide: residues of probe-labeled peptide. As to the method: Preparation and analysis was adapted from methods previously reported. In brief, for global mapping of fragment probe-modified peptides, separate 10 cm dishes of cells were treated with probes (200-250 μM) in 3.0 mL of DMEM (serum-free) and (if applicable) competitor ligands, proteomes harvested and subjected to click chemistry conditions with either light or heavy isotopically labeled biotin-TEV-azide (10 μL of 5 mM stocks in DMSO, final concentration=100 μM), TCEP, ligand and CuSO4 as detailed above. The samples were allowed to react for 1 h at which point the samples were centrifuged (16,000 g, 5 min, 4° C.). The resulting pellets were sonicated in ice-cold methanol (500 μL) and the resuspended light- and heavy-labeled samples were then combined and centrifuged (16,000 g, 5 min, 4° C.). The pellets were then solubilized in PBS containing 1.2% SDS (1 mL) with sonication and heating (5 min, 95° C.). Samples were transferred to falcon tubes containing DPBS (5 mL), to which a 100 μL of streptavidin-agarose beads slurry was added. After incubation, the beads (3 hr) were pelleted by centrifugation (1,400 g, 3 min) and were washed (2×10 mL PBS and 2×10 mL water). The beads were transferred to eppendorf tubes with 1 mL DPBS, centrifuged (1,400 g, 3 min), and resuspended in PBS containing 6 M urea. To this was added 10 mM DTT (25 μL of a 200 mM stock in water) and the beads were incubated at 65° C. for 15 mins. 20 mM iodoacetamide (25 μL of a 400 mM stock in water) was then added and allowed to react at 37° C. for 30 mins with shaking. The bead mixture was diluted with 900 μL PBS, pelleted by centrifugation (1,400 g, 3 min), and resuspended in 200 μL 2M urea (DPBS) containing trypsin and CaCl2 as described above. […]
The resulting probe-modified peptides were collected for MS analysis, which was performed as described above with differences in the salt bumps applied in the chromatographic gradients which in this case were 0%, 30%, 60%, 90% and 100% NH4OAc (500 μM). […] The isoTOP ratios for probe labeled peptides were quantified using the in-house software CIMAGE. […]

Regarding `COc1ccccc1N1CCN(C(=O)Cc2ccccc2)CC1` [Compound 22, 1-(4-(2-Methoxyphenyl)piperazin-1-yl)-2-phenylethan-1-one], in experiment [1], the “direct modulation of PPARγ transcriptional activity” value is reported as “do not directly induce; also recorded: Neither 22 nor 23 directly modulated”.

Regarding `C#CCCC1(CCC(=O)N2CCCCC2Cc2ccccc2)N=N1` (stereo not shown) [probe 13, 1-(2-Benzylpiperidin-1-yl)-3-(3-(but-3-yn-1-yl)-3H-diazirin-3-yl)propan-1-one], the “probe-modified peptide in BAX” value in experiment [2] (groove that binds BH3-domain activators Bim and Bid) is “aa 66-79”. Also, the “Labeled Peptide” value in experiment [2] (protein BAX (Q07812)) and in experiment [2] (protein BAX Apoptosis regulator BAX) was 66-78 throughout.

For the origin of these results see patent US11535597B2, “Photoreactive ligands and uses thereof” (The Scripps Research Institute, priority 2017, dated 2022).
